Where “and” joins values, the source holds several entries; their conditions need not be identical. Equal values may be shown once. Toxic doses and inconclusive results are not listed. No stated cut-off is given here; in the data, active means T/C of 150% or more; inactive means T/C below 125%.
Tested on: L1210 leukemia ip in BDF1 mice, survival T/C
Test: NCI In Vivo Anticancer Drug Screen. Data for tumor model L1210 Leukemia (intraperitoneal) in B6D2F1 (BDF1) mice
Details: endpoint: mean survival time, higher = longer survival
Method in brief: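 Tumor was transplanted into mice, which were then dosed with test compound or vehicle alone. Survival was recorded for each group, and the treated figure was expressed relative to the control figure.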

[1] = dose: 100.0 mg/kg/injection, schedule: Q01DX001 (ip), vehicle: saline
[2] = dose: 200.0 mg/kg/injection, schedule: Q01DX001 (ip), vehicle: saline
[3] = dose: 400.0 mg/kg/injection, schedule: Q01DX001 (ip), vehicle: saline
[4] = dose: 100.0 mg/kg/injection, schedule: Q04DX003 (ip), vehicle: Klucel (hydroxypropylcellulose) (HPC)
[5] = dose: 200.0 mg/kg/injection, schedule: Q04DX003 (ip), vehicle: Klucel (hydroxypropylcellulose) (HPC)
[6] = dose: 400.0 mg/kg/injection, schedule: Q04DX003 (ip), vehicle: Klucel (hydroxypropylcellulose) (HPC)
[7] = dose: 100.0 mg/kg/injection, schedule: Q01DX001 (ip), vehicle: carboxymethylcellulose (CMC)
[8] = dose: 200.0 mg/kg/injection, schedule: Q01DX001 (ip), vehicle: carboxymethylcellulose (CMC)
[9] = dose: 100.0 mg/kg/injection, schedule: Q04DX003 (ip), vehicle: saline with Tween-80
[10] = dose: 200.0 mg/kg/injection, schedule: Q04DX003 (ip), vehicle: saline with Tween-80
[11] = dose: 400.0 mg/kg/injection, schedule: Q04DX003 (ip), vehicle: saline with Tween-80
[12] = dose: 100.0 mg/kg/injection, schedule: Q04DX003 (ip), vehicle: other
[13] = dose: 200.0 mg/kg/injection, schedule: Q04DX003 (ip), vehicle: other
[14] = dose: 400.0 mg/kg/injection, schedule: Q04DX003 (ip), vehicle: other
[15] = dose: 100.0 mg/kg/injection, schedule: Q01DX009 (ip), vehicle: saline with Tween-80
[16] = dose: 100.0 mg/kg/injection, schedule: Q01DX009 (ip), vehicle: Klucel (hydroxypropylcellulose) (HPC)
[17] = dose: 200.0 mg/kg/injection, schedule: Q01DX009 (ip), vehicle: Klucel (hydroxypropylcellulose) (HPC)
[18] = dose: 400.0 mg/kg/injection, schedule: Q01DX009 (ip), vehicle: Klucel (hydroxypropylcellulose) (HPC)
[19] = dose: 50.0 mg/kg/injection, schedule: Q01DX009 (ip), vehicle: saline
[20] = dose: 100.0 mg/kg/injection, schedule: Q01DX009 (ip), vehicle: saline
[21] = dose: 100.0 mg/kg/injection, schedule: Q04DX002 (ip), vehicle: saline with Tween-80
[22] = dose: 200.0 mg/kg/injection, schedule: Q01DX009 (ip), vehicle: saline
[23] = dose: 200.0 mg/kg/injection, schedule: Q04DX002 (ip), vehicle: saline with Tween-80
[24] = dose: 100.0 mg/kg/injection, schedule: Q04DX003 (ip), vehicle: saline
[25] = dose: 200.0 mg/kg/injection, schedule: Q04DX003 (ip), vehicle: saline
[26] = dose: 400.0 mg/kg/injection, schedule: Q01DX009 (ip), vehicle: saline
[27] = dose: 400.0 mg/kg/injection, schedule: Q04DX003 (ip), vehicle: saline

Measured: T/C

CCCCOP(=O)(/C=C\c1ccccn1)OCCCC
inactive: dose: 50.0 mg/kg/injection, schedule: Q01DX009 (ip), vehicle: carboxymethylcellulose (CMC) 95 % of control and 97 % of control | dose: 50.0 mg/kg/injection, schedule: Q04DX003 (ip), vehicle: carboxymethylcellulose (CMC) 96 % of control | dose: 100.0 mg/kg/injection, schedule: Q01DX009 (ip), vehicle: carboxymethylcellulose (CMC) 94 % of control and 101 % of control | dose: 100.0 mg/kg/injection, schedule: Q04DX002 (ip), vehicle: carboxymethylcellulose (CMC) 100 % of control and 102 % of control | dose: 100.0 mg/kg/injection, schedule: Q04DX003 (ip), vehicle: carboxymethylcellulose (CMC) 108 % of control | dose: 200.0 mg/kg/injection, schedule: Q01DX009 (ip), vehicle: carboxymethylcellulose (CMC) 102 % of control and 117 % of control | dose: 200.0 mg/kg/injection, schedule: Q04DX002 (ip), vehicle: carboxymethylcellulose (CMC) 106 % of control and 91 % of control | dose: 200.0 mg/kg/injection, schedule: Q04DX003 (ip), vehicle: carboxymethylcellulose (CMC) 102 % of control

Nc1nc(N)c(N=Nc2ccc(SCC(=O)O)cc2)c(=O)[nH]1
inactive: [1] 93 % of control | [2] 98 % of control | [3] 96 % of control

C/C=C\COC(=O)COc1ccc(Cl)cc1
inactive: [4] 94 % of control | [5] 96 % of control | [6] 107 % of control

CC/C(=C/C(F)(F)C(F)(F)C(F)(F)F)[N+](=O)[O-]
inactive: [7] 112 % of control | [8] 103 % of control

NNC(=O)c1ccc(O)cc1
inactive: [9] 95 % of control | [10] 101 % of control | [11] 97 % of control

CC(/C=C/c1ccccc1)=N\NC(=O)NN
inactive: [1] 91 % of control | [2] 89 % of control | [3] 89 % of control

Cc1[nH]c(=S)[nH]c(=O)c1CCS
inactive: [1] 98 % of control | [2] 93 % of control | [3] 95 % of control

COc1ccc(O)cc1C
inactive: [12] 104 % of control | [13] 107 % of control | [14] 117 % of control

O=C(O)c1cc(S(=O)(=O)F)cc(S(=O)(=O)F)c1
inactive: [15] 86 % of control

ClCC1=NCCN1
inactive: dose: 12.5 mg/kg/injection, schedule: Q04DX002 (ip), vehicle: Klucel (hydroxypropylcellulose) (HPC) 97 % of control | dose: 25.0 mg/kg/injection, schedule: Q04DX002 (ip), vehicle: Klucel (hydroxypropylcellulose) (HPC) 97 % of control | dose: 50.0 mg/kg/injection, schedule: Q04DX002 (ip), vehicle: Klucel (hydroxypropylcellulose) (HPC) 97 % of control

O=c1c2ccccc2nc(-c2ccccc2)n1/N=C/c1cccnc1
inactive: [16] 90 % of control | [17] 98 % of control | [18] 104 % of control

Cc1c(F)c(Br)c([N+](=O)[O-])c(C)c1[N+](=O)[O-]
inactive: dose: 100.0 mg/kg/injection, schedule: Q01DX001 (ip), vehicle: Klucel (hydroxypropylcellulose) (HPC) 96 % of control | dose: 200.0 mg/kg/injection, schedule: Q01DX001 (ip), vehicle: Klucel (hydroxypropylcellulose) (HPC) 102 % of control | dose: 400.0 mg/kg/injection, schedule: Q01DX001 (ip), vehicle: Klucel (hydroxypropylcellulose) (HPC) 102 % of control

Cc1[nH]nc(C(F)(F)F)c1N=NN(C)C
inactive: dose: 175.0 mg/kg/injection, schedule: Q01DX009 (ip), vehicle: saline 90 % of control

CCOC(=O)CC(C)NC1CCCCC1 (configuration not stated)
inactive: dose: 100.0 mg/kg/injection, schedule: Q01DX Z (ip), vehicle: methylcellulose (MC) 92 % of control | dose: 200.0 mg/kg/injection, schedule: Q01DX Z (ip), vehicle: methylcellulose (MC) 92 % of control

CN(C)C=Nc1ccc(Cl)c(Cl)c1
inactive: dose: 12.5 mg/kg/injection, schedule: Q01DX009 (ip), vehicle: saline 90 % of control | dose: 25.0 mg/kg/injection, schedule: Q01DX009 (ip), vehicle: saline 90 % of control | [19] 90 % of control | [9] 97 % of control

CSc1nnc(SC)s1
inactive: [9] 104 % of control | [10] 93 % of control | [11] 93 % of control

CCCCN1CC2CCCC1O2 (configuration not stated)
inactive: dose: 50.0 mg/kg/injection, schedule: Q01DX001 (ip), vehicle: saline 97 % of control | [1] 95 % of control

CN(C)S(=O)(=O)c1ccc(NC(=O)CCl)cc1
inactive: dose: 100.0 mg/kg/injection, schedule: Q01DX001 (ip), vehicle: other 98 % of control | [15] 106 % of control | [12] 97 % of control | dose: 200.0 mg/kg/injection, schedule: Q01DX001 (ip), vehicle: other 110 % of control | dose: 200.0 mg/kg/injection, schedule: Q01DX009 (ip), vehicle: saline with Tween-80 102 % of control | [13] 103 % of control | dose: 400.0 mg/kg/injection, schedule: Q01DX001 (ip), vehicle: other 93 % of control | dose: 400.0 mg/kg/injection, schedule: Q01DX009 (ip), vehicle: saline with Tween-80 100 % of control | [14] 98 % of control

CC(=O)Nc1ccc(C(=O)C[n+]2ccc3ccccc3c2)cc1
inactive: [4] 97 % of control | [5] 92 % of control | [6] 94 % of control

Cc1cccc(C(=O)NCC(=O)O)c1
inactive: [19] 98 % of control | [20] 94 % of control | [21] 99 % of control | [22] 91 % of control | [23] 96 % of control

O=C1/C(=C/c2ccco2)CCC2CC3(CCC12)OCCO3 (configuration not stated)
inactive: [20] 116 % of control | [24] 92 % of control | [22] 102 % of control | [25] 97 % of control | [26] 98 % of control | [27] 94 % of control

COC(=O)c1cn2cc(Cl)cc(Cl)c2c1C(=O)OC
inactive: [21] 95 % of control | [23] 92 % of control | dose: 400.0 mg/kg/injection, schedule: Q04DX002 (ip), vehicle: saline with Tween-80 95 % of control

Cc1ccc2c(c1)SN(CN1C(=O)c3ccccc3C1=O)N2
inactive: [16] 103 % of control | [4] 94 % of control | [17] 93 % of control | [5] 96 % of control | [18] 90 % of control | [6] 91 % of control

CC(O)(C(N)=O)c1cc(Cl)ccc1Cl (configuration not stated)
inactive: dose: 100.0 mg/kg/injection, schedule: Q01DX009 (ip), vehicle: water 94 % of control | dose: 100.0 mg/kg/injection, schedule: Q04DX003 (ip), vehicle: water 90 % of control | dose: 200.0 mg/kg/injection, schedule: Q01DX009 (ip), vehicle: water 96 % of control | dose: 200.0 mg/kg/injection, schedule: Q04DX003 (ip), vehicle: water 95 % of control | dose: 400.0 mg/kg/injection, schedule: Q01DX009 (ip), vehicle: water 107 % of control | dose: 400.0 mg/kg/injection, schedule: Q04DX003 (ip), vehicle: water 96 % of control

CCCCc1cn(C(C)=O)nn1
inactive: [21] 106 % of control | [23] 100 % of control

OC1c2cc(Cl)ccc2-c2c(N=Cc3ccc4c(c3)OCO4)cc(Cl)cc21 (configuration not stated)
inactive: [7] 90 % of control | [8] 90 % of control | dose: 400.0 mg/kg/injection, schedule: Q01DX001 (ip), vehicle: carboxymethylcellulose (CMC) 93 % of control

CCCCCCCCCCCCCCCCN(C)c1ccc(C=O)cc1
inactive: [20] 97 % of control | [24] 104 % of control | [22] 100 % of control | [25] 98 % of control | [26] 103 % of control | [27] 105 % of control

O=S=Nc1ccc([N+](=O)[O-])cc1Cl
inactive: dose: 100.0 mg/kg/injection, schedule: Q04DX002 (ip), vehicle: Klucel (hydroxypropylcellulose) (HPC) 103 % of control | dose: 200.0 mg/kg/injection, schedule: Q04DX002 (ip), vehicle: Klucel (hydroxypropylcellulose) (HPC) 106 % of control | dose: 400.0 mg/kg/injection, schedule: Q04DX002 (ip), vehicle: Klucel (hydroxypropylcellulose) (HPC) 100 % of control

From PubChem BioAssay AID248 (DTP/NCI, 2004)
